“And” between values parts separate entries of the source, which are not always exact repeats. Equal values may be shown once. “Also recorded” adds a separate entry of the source.
Legend:
[1] = system: phosphorylated IKK complex, IκBα and p65; assay: Western blot of IKK/NF-κB signaling in Raw 264.7 cells (TNF-α or LPS); assay type: cell-based, mouse; conditions: 150 μM (S2A Fig: 0-150 μM), 30 min; TNF-α 10 ng/ml or LPS 1 μg/ml 10 min
Protocol: To determine whether the novel NBD mimetics target the NEMO-IKKβ interaction in vivo, co-immunoprecipitations were performed using extracts from Raw 264.7 macrophages (Fig 5A). […] No interaction between NEMO and TNF receptor-associated factor 2 (TRAF2) or IκBα was observed under these conditions. […] The levels of phosphorylated IKK complex, IκBα, and p65 in response to TNF-α and LPS were all reduced by SR12343 (Fig 5D & 5E). […] However, there were no changes in the levels of phospho-c-Jun N-terminal kinase (p-JNK), p-p38MAPK, total JNK, and p38MAPK by treatment with SR12343 (150 μM) in response to TNF-α or LPS stimulation (Fig 5G & 5H). […]
(A) Co-IP analysis detecting the IKKβ/NEMO interaction. […] NEMO-binding products were then analyzed for levels of IKKβ, IKKα, TRAF2, and IκBα (negative control), and levels of NEMO were used as a loading control (left panel). […] The levels of IKKβ-FLAG binding to GST-NEMO were determined by western blot analysis with GST-NEMO used as a loading control. […] Cell lysates were analyzed for activity of the IKK/NF-κB signaling pathway including activation of IKK complex, IκBα, and p65. […] Cell lysates were harvested and analyzed for activation of noncanonical NF-κB signaling, the processing of p100 to p52. […]

HEK293 cells = conditions: Fig 2D; 100 μM, 24 h
Protocol: (A) HEK293 cells stably expressing NF-κB luciferase reporter were pretreated with indicated small molecules at 100 μM for 30 min, followed by stimulation with TNF-α (10 ng/ml) for 3 h. Luciferase activity was normalized to untreated stimulated control cells. […] (B) The dose-dependent response of ZINC12909780 was tested by NF-κB luciferase assay in HEK293 cells. Three independent experiments were performed, and data shown represent mean +/− SD. […] (D) HEK293 cells were cultured in the presence of 100 μM of indicated derivatives for 24 h, and cell survival was determined by MTT assay. Cell viability was calculated by normalizing to untreated cells. (E) Dose-dependent inhibitory effects were determined for ZINC5 at 0, 25, 50, and 100 μM by using NF-κB luciferase assay. (F) HEK293 were cultivated in the presence of ZINC5 at listed concentrations for 24 h, and cell survival was assessed by MTT assay. Data represent the mean +/− SD from 4–5 independent experiments. *P < 0.05; **P < 0.01; ***P < 0.001. Underlying data can be found in S1 Data. HEK293, human embryonic kidney 293 cells; MTT, 3-(4,5-dimethylthiazol-2-yl)-2,5-dephenyltetrazolium bromide colormetric assay for assessing cell metabolic activity; NF-κB, nuclear factor κB; TNF-α; tumor necrosis factor α; SD, standard deviation.
HEK293 cells were grown in a 96-well plate at 3 × 10^4 cells/well in triplicate and treated with DMSO or listed small molecules at indicated concentrations for 24 h. Cell survival was determined by adding 20 μl of 5 mg/ml MTT (thiazolyl blue tetrazolium bromide) to each well, followed by incubation in 37 °C for 3 h. Media were removed, and purple formazan was dissolved in 100 uL of DMSO. Absorbance was measured at 590 nm on a microplate reader (PerkinElmer, Waltham, MA). Cell viability was calculated by normalizing values to untreated controls.

| Structure (SMILES) | Levels of phosphorylated IKK complex, IκBα and p65 [1] | Cell viability normalized to untreated cells (MTT) (HEK293 cells) |
| --- | --- | --- |
| O=C(CNc1ccc(Cl)cn1)NCCc1cccc(Br)c1 [SR12343] | inhibited phosphorylation of IKKα/β and p65 and prevented IκBα from degradation; also recorded: all reduced | – |
| O=C(COC(=O)Cc1ccccc1F)Nc1ccc(Cl)cn1 [ZINC5] | – | 95 and 80 and 84 and 81 |

Reference: paper PMC6013238, “Development of novel NEMO-binding domain mimetics for inhibiting IKK/NF-κB activation” (PLoS Biology, 2018)
